What was measured:
delF508-CFTR [1] = biological target: T1, delF508-CFTR (Homo sapiens, UniProt P13569, DEL508-508); experiment: Competition experiments by the iodide efflux technique between guanabenz and the chaperone machinery of the ER; assay type: cell-based
T1 construct: The CF15 cells are human epithelial cells of nasal origin which express the ΔF508-CFTR gene; endogenous in cells; host or cells: CF15 human airway epithelial cells (F508del/F508del)
Protocol: The measurements of chloride ion transport in the cells were performed with the aid of the radioactive iodide efflux technique (Becq et al., 1999; Dormer et al., 2001). The tracer (^125I) is incorporated into the intracellular medium. Next, the quantity of radiotracer which leaves the cell is counted after the addition of various pharmacological agents. The iodide is used as chloride ion transport tracer. ^125I further has the advantage of having a short life compared with that of other markers such as […] (respective ½ life: […] and 300 000 years).
The cells are cultured on 24-well plates in a suitable medium. Two rinses with efflux medium (NaCl: 136.6 mM, KCl: 5.4 mM, KH2PO4: 0.3 mM, NaH2PO4: 0.3 mM, NaHCO3: 4.2 mM, CaCl2: 1.3 mM, MgCl2: 0.5 mM, MgSO4: 0.4 Mm, HEPES: 10 mM, D-glucose: 5.6 mM) are performed in order to remove the dead cells which anarchically release radioactivity. Next, the cells are incubated with 500 μl of load (1 μCi/ml of ^125INa) for 30 min for the CHO-WT cells or 1 h for the CF15 and Calu-3 cells. The iodide forms an equilibrium on either side of the cell membrane. The robot (MultiPROBE, Packard) carries out the following steps: the load medium is rinsed with efflux medium in order to remove the extracellular radioactivity. The supernatant is collected every minute in hemolysis tubes and the medium is replaced with an equivalent volume (500 μl). No drug is added to the samples collected for the first 3 minutes, they make it possible to obtain a stable baseline, characterizing the passive outflow of the I ions. […] At the end of the experiment, the cells are lysed by adding 500 μl of NaOH (0.1N)/0.1% SDS (30 min), thus the radioactivity remaining inside the cell can be determined. The radioactivity present in the hemolysis tubes is counted in counts per minute (cpm) using a gamma counter (Cobra II, Packard). […] In order to quantify the outflow of iodide due to the administration of the test molecule, the following relative flow is calculated, which makes it possible to dispense with the basal flow: relative speed (min^−1)=Rpic−Rbasal. […]

delF508-CFTR [2] = biological target: T1, delF508-CFTR; experiment: Iodide efflux (radiotracer) after 2 h treatment of CF15 cells, forskolin activation; assay type: cell-based

T1 sequence (P13569 with tags, fused parts or gaps DEL508-508): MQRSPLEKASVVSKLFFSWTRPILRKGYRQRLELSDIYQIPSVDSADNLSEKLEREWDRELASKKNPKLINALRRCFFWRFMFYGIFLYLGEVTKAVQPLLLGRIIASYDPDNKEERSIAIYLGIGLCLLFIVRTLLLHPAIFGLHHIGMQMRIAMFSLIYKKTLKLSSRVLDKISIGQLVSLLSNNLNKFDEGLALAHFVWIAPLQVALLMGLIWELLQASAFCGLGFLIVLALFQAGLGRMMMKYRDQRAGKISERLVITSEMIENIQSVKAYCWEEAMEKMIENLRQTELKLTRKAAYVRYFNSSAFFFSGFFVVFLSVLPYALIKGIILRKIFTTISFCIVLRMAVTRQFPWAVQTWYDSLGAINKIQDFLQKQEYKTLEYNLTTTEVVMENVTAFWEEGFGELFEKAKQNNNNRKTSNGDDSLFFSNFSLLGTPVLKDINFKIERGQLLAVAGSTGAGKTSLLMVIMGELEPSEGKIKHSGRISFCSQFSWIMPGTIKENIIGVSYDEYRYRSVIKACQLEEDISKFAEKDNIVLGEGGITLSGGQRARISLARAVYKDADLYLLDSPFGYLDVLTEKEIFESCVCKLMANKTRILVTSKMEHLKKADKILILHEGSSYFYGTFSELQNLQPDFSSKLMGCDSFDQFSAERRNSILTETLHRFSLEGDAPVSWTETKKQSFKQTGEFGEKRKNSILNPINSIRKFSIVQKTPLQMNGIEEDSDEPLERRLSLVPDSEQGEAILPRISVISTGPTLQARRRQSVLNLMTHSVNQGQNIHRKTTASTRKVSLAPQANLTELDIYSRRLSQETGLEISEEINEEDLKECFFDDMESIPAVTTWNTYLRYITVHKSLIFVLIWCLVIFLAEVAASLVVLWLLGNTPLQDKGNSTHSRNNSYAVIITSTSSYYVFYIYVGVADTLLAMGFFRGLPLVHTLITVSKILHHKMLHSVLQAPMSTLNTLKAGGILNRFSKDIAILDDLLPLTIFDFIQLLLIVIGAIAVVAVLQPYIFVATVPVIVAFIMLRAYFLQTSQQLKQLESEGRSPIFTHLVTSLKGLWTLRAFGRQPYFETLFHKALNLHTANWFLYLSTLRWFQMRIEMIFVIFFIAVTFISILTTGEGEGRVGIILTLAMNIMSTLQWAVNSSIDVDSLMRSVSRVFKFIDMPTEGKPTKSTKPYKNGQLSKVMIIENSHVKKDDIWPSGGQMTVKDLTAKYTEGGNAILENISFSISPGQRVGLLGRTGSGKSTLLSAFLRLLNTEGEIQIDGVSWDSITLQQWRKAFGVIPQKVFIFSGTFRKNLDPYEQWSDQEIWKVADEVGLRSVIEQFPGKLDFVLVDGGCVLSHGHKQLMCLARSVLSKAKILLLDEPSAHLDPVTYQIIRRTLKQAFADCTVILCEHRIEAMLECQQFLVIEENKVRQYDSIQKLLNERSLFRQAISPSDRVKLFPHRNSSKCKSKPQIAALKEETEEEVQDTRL

SMILES: N=C(N)N/N=C/c1c(Cl)cccc1Cl [guanabenz]
- effect of guanabenz in the presence of Brefeldine-A (BFA) (delF508-CFTR [1]; BFA, inhibitor of vesicular ERGIC traffic): inhibition of the effect of guanabenz
- effect of guanabenz in the presence of MG132 (delF508-CFTR [1]; MG132, proteasome inhibitor): No modulation of the effect of guanabenz
- effect of guanabenz in the presence of swainsonine (delF508-CFTR [1]; swainsonine, mannosidase inhibitor): low potentiation of the effect of guanabenz
- readdressing of the mutated protein F508del-CFTR to the membrane (delF508-CFTR [2]; CF15 cells (F508del/F508del) treated with guanabenz): allows readdressing of the mutated protein F508del-CFTR to the membrane
- EC50 (delF508-CFTR [2]; CF15 cells, 2 h of treatment, iodide efflux, read-out: EC50 of readdressing of the protein F508del-CFTR): 40 µM

From patent US8252958B2, “Use of guanabenz and its derivatives for making drugs for treating cystic fibrosis and diseases related to a protein addressing deficiency in the cells” (Centre National de la Recherche Scientifique (CNRS), priority 2006, dated 2012)
